From US20070039241A1, “Floatable granular substrate for culturing plant material” (GSF - Forschungszentrum fur Umwelt und Gesundheit, priority 2003, published 2007)

System: barley seedlings
Assay: Heavy metal uptake of barley seedlings on floating culture substrate or agar substrate (ICP-MS of leaves and roots)
Type: in vivo, Hordeum vulgare cv. Barke
Details: for Concentration of heavy metal ions in barley seedlings, Shoot, Agar: grown on agar; for Concentration of heavy metal ions in barley seedlings, Shoot, Agar / Concentration of heavy metal ions in barley seedlings, Root, Floatable Substrate / Concentration of heavy metal ions in barley seedlings, Shoot, Floatable Substrate: 6 day old plants; for Concentration of heavy metal ions in barley seedlings, Root, Floatable Substrate / Concentration of heavy metal ions in barley seedlings, Shoot, Floatable Substrate: grown on floatable substrate; for Factor by which concentration in the roots was increased compared to shoot tissue: seedlings grown on floatable substrate
Description: MS-basal Medium or Hoagland's medium was supplemented with heavy metals as follows: stock solutions of Hg Cl2 (0.1 M) or Cd(NO3)2•4H2O (0.1 M) were applied to the autoclaved medium when it had cooled to about 55° C. such that final heavy metal-ion concentrations of 10, 20, 30 and 40 μM were obtained.
Agar culturing substrate was prepared by adding 1.5 wt/vol % agar (Sigma) to Hoagland's or MS-basal medium. After heating to 100° C., respective amounts of heavy metal salts were added when the medium had cooled down to […]. Then the mixture was poured into Phytotray II™ culture vessels (Sigma) and left to cool for subsequent use.
Barley caryopses prepared and seeded onto a floatable substrate layer as in Example 1. Alternatively, the caryopses were directly placed on culturing agar as described above.
Seedlings were grown as described, and leaves and roots of 6 day old plants were harvested and weighed to determine the fresh weight. Samples were shock-frozen in liquid nitrogen and stored at −80° C.
Total mercury and cadmium content of leaves and roots was determined by electrothermal vaporization inductively coupled plasma-mass spectrometry (Michalke et al., 1997).

| Compound | Concentration of heavy metal ions in barley seedlings, Shoot, Agar (added concentration 10 μM) | Concentration of heavy metal ions in barley seedlings, Shoot, Agar (added concentration 20 μM) | Concentration of heavy metal ions in barley seedlings, Shoot, Agar (added concentration 30 μM) | Concentration of heavy metal ions in barley seedlings, Shoot, Agar (added concentration 40 μM) | Concentration of heavy metal ions in barley seedlings, Root, Floatable Substrate (added concentration 10 μM) | Concentration of heavy metal ions in barley seedlings, Shoot, Floatable Substrate (added concentration 10 μM) | Concentration of heavy metal ions in barley seedlings, Root, Floatable Substrate (added concentration 20 μM) | Concentration of heavy metal ions in barley seedlings, Shoot, Floatable Substrate (added concentration 20 μM) | Concentration of heavy metal ions in barley seedlings, Root, Floatable Substrate (added concentration 30 μM) | Concentration of heavy metal ions in barley seedlings, Shoot, Floatable Substrate (added concentration 30 μM) | Concentration of heavy metal ions in barley seedlings, Root, Floatable Substrate (added concentration 40 μM) | Concentration of heavy metal ions in barley seedlings, Shoot, Floatable Substrate (added concentration 40 μM) | Factor by which concentration in the roots was increased compared to shoot tissue |
| --- | --- | --- | --- | --- | --- | --- | --- | --- | --- | --- | --- | --- | --- |
| [Cl][Hg][Cl] [Hg^2+, Hg Cl2] | 62 µM | 171 µM | 254 µM | 252 µM | 697 µM | 54 µM | 851 µM | 144 µM | 2060 µM | 239 µM | 2430 µM | 296 µM | 10 |
| O.O.O.O.O=[N+]([O-])[O-].O=[N+]([O-])[O-].[Cd+2] [Cd^2+, Cd(NO3)2•4H2O] | 15 µM | 21 µM | 41 µM | 53 µM | 479 µM | 4 µM | 1270 µM | 27 µM | 1450 µM | 27 µM | 2880 µM | 59 µM | 60 |
